# From US20210330756A1, “Acetylation of Miro1” (University of South Carolina, priority 2020, published 2021)
# System: axonal mitochondria of DRG neurons
# Assay: Live cell imaging of axonal mitochondrial movement in cultured DRG neurons
# Assay type: cell-based, rat
# Excerpt: HDAC6 inhibition was previously shown to increase transport of mitochondria in axons of embryonic rodent hippocampal and chick sensory neurons (Chen et al., 2010; Kim et al., 2012; Rui and Zheng, 2016; Sainath et al., 2017), and axonal mitochondrial transport has been linked to axon growth (Steketee et al., 2012; Cartoni et al., 2016; Lewis et al., 2016; Zhou et al., 2016). By live cell imaging with MitoTracker to visualize mitochondria, DRG neurons appeared to show increased anterograde versus retrograde mitochondrial movement along axons (FIG. 3 at A and B). […] (A and B) Representative images from CALI time lapse sequence are shown for DRGs cultured on laminin and treated with vehicle control (DMSO) versus 10 μM TubA for 1 h (A). BFP is shown in blue as an axonal marker and Mito-KR signal is shown in red. Boxed regions represent ROI for distal axon and growth cone that was subjected to photoactivation of Mito-KR to ablate mitochondria. […] (C and D) Quantifications of percentage of axons retracting (C) and retraction distance (D) from image sequences as in A are shown as average±SEM (n≥13 across three culture preparations; ***, P≤0.005 by one-way ANOVA with Bonferroni post hoc analysis). (E) Recovery of Mito-KR red fluorescence in photoactivated ROI from image sequences as in A is shown as average of normalized percentage recovery±SEM (n≥13 axons from three independent experiments; *, P≤0.05; **, P≤0.01; ***, P≤0.005 vs. t=0; ###, P≤0.005; ####, P≤0.001, #####, P≤0.0005 for TubA vs. control; and NS vs. t=0 s by one-way ANOVA with Bonferroni post hoc analysis). […]
# Quantification of growth cone mitochondria was performed using high-magnification images from living neurons transfected with either Mito-KR or incubated with MitoTracker. […] Only mitochondria that could be distinguished as a single mitochondrion were counted; if this was not possible, that growth cone was not included in the analysis. […]
# Vesicle trafficking was quantified using differential ImageJ Difference Tracker Plug-in (Andrews et al., 2010). […] Movement of ≥0.5 μm toward the axon shaft was counted as retracted. […]
compound,measurement,setting,value
"CN1CCc2c(c3ccccc3n2Cc2ccc(C(=O)NO)cc2)C1 [TubA, tubastatin]",mitochondrial profiles in growth cones,"10 μM TubA, 1 h vs vehicle",significant increase in mitochondrial profiles in the growth cones
same,"speed, track durations, directionality of axonal mitochondrial movements","HDAC6-inhibited (10 μM TubA) vs control, laminin",no significant differences
same,anterogradely vs retrogradely moving mitochondria in axons,HDAC6-inhibited cultures,more anterogradely than retrogradely moving mitochondria
